Data from patent US20260041723A1, “BACTERIOPHAGE COMPOSITIONS FOR TREATING STAP[…]” (priority 2020, published 2026).

System: S. aureus strains
Type: cell-based
Settings: resistant or intermediate strains, in the presence of AP-SA02
Description: Grey boxes indicate lines on graph depicted in FIG. 5B. […] Vancomycin, 16 μg/mL; AP-SA02, 0.1 pg/mL.
FIG. 6A is data showing bacterial growth measured by turbidity (absorbance at 600 nm) in the presence of AP-SA02 and vancomycin in a checkerboard assay. Grey boxes show lines on graph depicted in FIG. 6B. […] Vancomycin, 2 μg/mL.
Standard therapy for subjects with a S. aureus infection includes vancomycin and daptomycin. Since subjects who receive AP-SA02 are likely to be on these therapies, the effect of AP-SA02 on these antibiotics and vice versa was assessed. Using the standard checkerboard assay, the minimum inhibitory concentration of each antimicrobial alone or in combination with each other, was used to calculate whether two antimicrobials are synergistic, antagonistic, or indifferent (Table 3).

`CN[C@H](CC(C)C)C(=O)N[C@H]1C(=O)N[C@@H](CC(N)=O)C(=O)N[C@H]2C(=O)N[C@H]3C(=O)N[C@H](C(=O)N[C@H](C(=O)O)c4cc(O)cc(O)c4-c4cc3ccc4O)[C@H](O)c3ccc(c(Cl)c3)Oc3cc2cc(c3O[C@@H]2O[C@H](CO)[C@@H](O)[C@H](O)[C@H]2O[C@H]2C[C@](C)(N)[C@H](O)[C@H](C)O2)Oc2ccc(cc2Cl)[C@H]1O` [vancomycin] was tested, and the “breakpoint for vancomycin in the presence of phage” value was 0.5 to 2 µg/mL.
